Test results taken from patent publication US9420813B2, “Sweetener” (AJINOMOTO CO., INC., priority 2007, dated 2016).
*1 amine or outer side, *2 acyl side, *3 side chain or, on linkers, in order; H or OH if unused. Where no end group is shown, it is not given here. [ ]: non-standard residue; d: D form. γGlu = O=C(O)[C@H](CCC(=O)[*:2])N[*:1]; Abu = CC[C@H](N)C(=O)O

Experiments:
[1] = Quantitative sensory evaluation test, intensity of kokumi-imparting activity; details: for Kokumi intensity, aftertaste / Kokumi intensity, initial and middle taste: control 0, glutathione 3 points
Procedure: The quantitative sensory evaluation test was performed as follows. […] When a sample is acidic when dissolved, the pH was adjusted with NaOH to pH 6.8 to 7.2 before use. Because it is known that glutathione can impart kokumi to a food, glutathione was used as a comparative control. The test was performed with n=3 based on the following sensory evaluation scores: control was given 0 points, glutathione addition was given 3 points. […] It should be noted that the term “initial and middle taste” is a collective term of the initial taste and middle taste.
The quantitative sensory evaluation test was performed as follows. […] When a sample is acidic when dissolved, the pH of the sample was adjusted with NaOH to pH 6.8 to 7.2 before use. The test was performed with n=5 based on the following sensory evaluation scores: control was given 0 point and glutathione addition was given 3 points.
The quantitative sensory evaluation test was performed as follows. […] As for a sample which is acidic when the sample is dissolved, pH of the sample was adjusted with NaOH to pH 6.8 to 7.2 before use. The test was performed with n=12 based on the following sensory evaluation scores: control: 0 point and glutathione addition: 3 points.

[2] = Quantitative sensory evaluation, improvement of body taste and bitterness of combined high-intensity sweeteners (Examples 2 and 4); parameters: species or system human; details: for Bitterness: control 0, <0 improved; for Bitterness / Body taste: n=12; for Body taste: control 0, >0 improved
Procedure: The quantitative sensory evaluation test was performed as follows. As for a combination standard solution of each sweeteners, the following compounds were used. The following standard solutions have been adjusted so they each have almost the same degree of sweetness.
ii) APM (0.02 g/dl)+Ace-K (0.005 g/dl) [APM:Ace-K=8:2 as a ratio of degrees of sweetness]
iii) Sucralose (0.0058 g/dl)+Ace-K (0.0075 g/dl) [sucralose:Ace-K=7:3 as a ratio of degrees of sweetness]
iv) APM (0.0125 g/dl)+sucralose (0.0042 g/dl) [APM:sucralose=1:1 as a ratio of degrees of sweetness]
v) APM (0.0125 g/dl)+sucralose (0.0021 g/dl)+Ace-K (0.0063 g/dl) [APM:sucralose:Ace-K=2:1:1 as a ratio of degrees of sweetness]
To distilled water containing each of the sweeteners, γ-Glu-Cys-Gly (glutathione), γ-Glu-Val-Gly or γ-Glu-Abu-Gly was added and mixed at concentrations of 0.0001 to 1 g/dl, and then the degree of the improvement of the body taste and the improvement of the bitterness on the sweet taste was measured. The addition effect of the peptides on each of the high-intensity sweeteners was evaluated with reference to sucrose.
When a mixture is more acidic than the standard control solution, the pH of the mixture was adjusted with NaOH to achieve a range of pH±0.2 with respect to the pH of the standard solution before use.
The sensory evaluation for the improvement of the body taste was performed with n=12 on the basis of the following criteria: a control (obtained by adding distilled water only and without adding glutathione and/or the peptide) was defined as 0, and by using the control as a standard, the follow were defined: weak: −2 points; slightly weak: −1 point; slightly strong: 1 point, and strong: 2 points. A higher score than 0 means that the sample has a body taste-improving effect.
(§1) Alternatively, the sensory evaluation for the improvement of the bitterness was performed with n=12 on the basis of the following criteria: a control (obtained by adding distilled water only and without adding glutathione and/or the peptide) was defined as 0, and by using the control as a standard, the following were defined: weak: −2 points; slightly weak: −1 point; slightly strong: 1 point, and strong: 2 points. A lower score than 0 means that the sample improves the bitterness.
The quantitative sensory evaluation test was performed as follows. As for combination standard solution of each sweeteners, the following compound was used. The following standard solutions have been adjusted so they each have almost the same degree of sweetness.
To distilled water containing each sweetener mentioned above, γ-Glu-Val-Gly or cinacalcet was added and mixed at concentrations of 0.0001 to 1 g/dl, and then each degree of the improvement of the body taste and the improvement of the bitterness on the sweet taste was measured. The addition effect of the sample on each of the high intensity sweeteners was evaluated with reference to sucrose.
When a mixture is more acidic than the standard control solution, the pH of the sample was adjusted with NaOH to achieve a range of pH±0.2 with respect to the pH of the standard solution before use.
The sensory evaluation for the improvement of the body taste was performed with n=12 on the basis of the following criteria: a control (obtained with adding distilled water only and without adding the sample) was defined as 0, and by using the control as a standard, the following were defined: weak: −2 points; slightly weak: −1 point; slightly strong: 1 point, and strong: 2 points. A higher score than 0 means that the sample improves the body taste.
as §1, with “(obtained with” for “(obtained by”, “adding” for “adding glutathione and/or”, “the sample)” for “the peptide)”, “points. […]” for “points. A lower score than 0 means that the sample improves the bitterness.”

[3] = APM 0.0125 + sucralose 0.0021 + Ace-K 0.0063 g/dl (2:1:1), sample 0.05 g/dl
[4] = APM 0.0125 g/dl + sucralose 0.0042 g/dl (1:1), sample 0.05 g/dl
[5] = APM 0.02 g/dl + Ace-K 0.005 g/dl (8:2), sample 0.05 g/dl
[6] = sucralose 0.0058 g/dl + Ace-K 0.0075 g/dl (7:3), sample 0.05 g/dl
[7] = APM 0.0125 + sucralose 0.0021 + Ace-K 0.0063 g/dl (2:1:1), sample 0.001 g/dl
[8] = APM 0.0125 + sucralose 0.0021 + Ace-K 0.0063 g/dl (2:1:1), sample 0.01 g/dl
[9] = APM 0.0125 g/dl + sucralose 0.0042 g/dl (1:1), sample 0.001 g/dl
[10] = APM 0.0125 g/dl + sucralose 0.0042 g/dl (1:1), sample 0.01 g/dl
[11] = APM 0.02 g/dl + Ace-K 0.005 g/dl (8:2), sample 0.001 g/dl
[12] = APM 0.02 g/dl + Ace-K 0.005 g/dl (8:2), sample 0.01 g/dl
[13] = sucralose 0.0058 g/dl + Ace-K 0.0075 g/dl (7:3), sample 0.001 g/dl
[14] = sucralose 0.0058 g/dl + Ace-K 0.0075 g/dl (7:3), sample 0.01 g/dl

N[C@@H](CCC(=O)N[C@@H](CS)C(=O)NCC(=O)O)C(=O)O [γ-Glu-Cys-Gly, reference compound]
Kokumi intensity, aftertaste ([1]; sample 0.1 g/dl, n=3): 3.0 points | Kokumi intensity, initial and middle taste ([1]; sample 0.1 g/dl, n=3): 3.0 points | Kokumi intensity, aftertaste ([1]; sample 0.1 g/dl, n=5): 3.0 points | Kokumi intensity, initial and middle taste ([1]; sample 0.1 g/dl, n=5): 3.0 points | Kokumi intensity, aftertaste ([1]; sample 0.1 g/dl, n=12): 3.0 points | Kokumi intensity, initial and middle taste ([1]; sample 0.1 g/dl, n=12): 3.0 points | Evaluation comments ([1]; sample 0.1 g/dl, n=3): Thickness, | Taste profile ([1]; sample 0.1 g/dl, n=5): Thickness, | Taste profile ([1]; sample 0.1 g/dl, n=12): Thickness, | Bitterness [2, 3]: −0.3 points | Body taste [2, 3]: 1.2 points | Bitterness [2, 4]: −0.3 points | Body taste [2, 4]: 1.0 points | Bitterness [2, 5]: −0.3 points | Body taste [2, 5]: 1.0 points | Taste profile ([2]; APM:Ace-K = 8:2, sample 0.05 g/dl): Sweet taste is wholly enhanced. | Taste profile ([2]; APM:sucralose = 1:1, sample 0.05 g/dl): Sweet taste is enhanced in middle taste. | Taste profile ([2]; APM:sucralose:Ace-K = 2:1:1, sample 0.05 g/dl): Sweet taste is wholly enhanced. | Bitterness [2, 6]: −0.3 points | Body taste [2, 6]: 1.0 points | Taste profile ([2]; sucralose:Ace-K = 7:3, sample 0.05 g/dl): Sweet taste is enhanced in middle taste.

[γGlu]-[Abu]-Gly
Kokumi intensity, aftertaste ([1]; sample 0.01 g/dl, n=12): 2.0 points | Kokumi intensity, initial and middle taste ([1]; sample 0.01 g/dl, n=12): 3.0 points | Bitterness [2, 7]: −0.4 points | Body taste [2, 7]: 0.6 points | Bitterness [2, 8]: −0.8 points | Body taste [2, 8]: 1.3 points | Bitterness [2, 9]: −0.1 points | Body taste [2, 9]: 0.6 points | Bitterness [2, 10]: −0.1 points | Body taste [2, 10]: 1.3 points | Bitterness [2, 11]: −0.3 points | Body taste [2, 11]: 0.6 points | Bitterness [2, 12]: −0.7 points | Body taste [2, 12]: 1.3 points | Taste profile ([2]; APM:sucralose = 1:1, sample 0.001 g/dl): Harmony is present. Sweet taste is enhanced | Taste profile ([2]; APM:sucralose = 1:1, sample 0.01 g/dl): Harmony is present. Sweet taste is enhanced | Bitterness [2, 13]: −0.3 points | Body taste [2, 13]: 0.5 points | Bitterness [2, 14]: −0.7 points | Body taste [2, 14]: 1.1 points
